Earlier results on four compounds are cited in patent US20070166321A1, “Compositions and Methods for Reducing Cholesterol and Inflammation” (priority 2006, published 2007).

“Also recorded” adds a separate entry of the source.

The conditions of data set [1]: in vivo.
Test in data set [2]: not given
The source holds these as a separate data set.

In data set [3] the test system is 12-O-tetradecanoylphorbol-13 acetate (TPA) induced inflammation. The following applies: for 50%-inflammation reduction index ID50: TPA-induced inflammation.

Consider `CS(=O)(=O)c1ccc(C2=C(c3ccccc3)C(=O)OC2)cc1` [Vioxx], for which the “increase of cardiovascular disease” value in data set [1] was around 4 fold.

Turning to `C[C@H]1[C@H](C)CC[C@]2(C(=O)O)CC[C@]3(C)C(=CC[C@@H]4[C@@]5(C)C[C@@H](O)[C@H](O)C(C)(C)[C@@H]5CC[C@]43C)[C@H]12` [corosolic acid], the solubility in water result was “low solubility in water”. Also, in data set [2], the “effect on glucose levels of non-diabetics” value is recorded as “does not significantly reduce glucose levels”. The “50%-inflammation reduction index ID50” value in data set [3] is reported as 0.03 mg. Also, the “inhibition of TPA induced inflammation, potency comparison” value in data set [3] (compared with reference antiinflammatory drugs) is “potency similar to the antiinflammatory drug indomethasin; also recorded: potency similar to the antiinflammatory drugs indomethasin and hydrocortisone”.

`C[C@]12CCC(=O)C=C1CC[C@@H]1[C@@H]2[C@@H](O)C[C@@]2(C)[C@H]1CC[C@]2(O)C(=O)CO` [hydrocortisone]: the “50%-inflammation reduction index ID50” value in data set [3] is listed as 0.03 mg.

For `COc1ccc2c(c1)c(CC(=O)O)c(C)n2C(=O)c1ccc(Cl)cc1` [indomethacin], the “50%-inflammation reduction index ID50” value in data set [3] was 0.3 mg.
